The subject of data set [1] is A549 cells. In words: Mitochondrial membrane depolarization (JC-1, flow cytometry). The data set is classed as cell-based, human. The following applies: A549, IC50 concentration, 24 h. The protocol: Staining of cells with JC-1 was realized according to the manufacturer’s recommendations of BD, Pharmingen Flow cytometry kit. […] For this purpose, cells were seeded at an optimal density in six-well plates (not exceeding 1 × 10^6/mL cells). The cells were then incubated with the substances to be tested at the appropriate concentration and time. After the treatment, each cell suspension was taken into a 15 mL polystyrene centrifuge tube and the cells were centrifuged at 400g for 5 min and removed from the supernatant. 0.5 mL of a freshly prepared working solution was added to each pellet, and the solution was vortexed. The test cells were soaked in a JC-1 working solution at 37 °C for 10–15 min, and the cells were washed twice. In the first wash, 2 mL of 1X assay buffer was added and the cells were suspended sensitively. Then, the cells were centrifuged at 400g for 5 min and the supernatant was removed, carefully. In the second wash, 1 mL of 1X assay buffer was added and vortexed. After the cells were centrifuged at 400g for 5 min, each cell pellet was suspended in 0.5 mL 1X assay buffer and vortexed. Finally, the cell was analyzed by a flow cytometer.

Data set [2] deals with A549 cells. Description: Early/late apoptosis by Annexin V-FITC/PI flow cytometry. It is filed as cell-based, human. The settings on record: A549, IC50 dose, 24 h incubation.
Protocol: Phosphatidylserine externalization, a marker of early apoptosis, was assessed using the FITC Annexin V apoptosis detection kit (BD Pharmingen, San Jose, CA, USA) on a BD FACSAria flow cytometer. Following their collection, the A549 and L929 cells were twice washed in ice-cold PBS before being resuspended in 100 μL of binding buffer. The cells were treated with a volume of 5 μL (5 μg/mL) of Annexin V-FITC and PI, and they were incubated for 15 min at room temperature (20–25 °C) in the dark. Following that, 400 μL of binding buffer was added to the combination samples, and FACSDiva version 6.1.1 was used to analyze the samples on a BD FACSAria flow cytometer.
The next data set concerns the target T1, MMP-9 enzyme (Homo sapiens, UniProt P14780).
T1 construct: purchased EnzoLife Sciences Inc. (Farmingdale, New York, NY, USA)
In words: MMP-9 colorimetric inhibition assay. The data set is classed as biochemical. The settings on record: for inhibition at 100 µg/mL: at 100 μg/mL. From the text:
As described in our previous study,[36] the method was applied in exactly the same manner. EnzoLife Sciences Inc. provided MMP-9 colorimetric kits (Farmingdale, New York, NY, USA). The MMP Colorimetric Drug Discovery Kits are a comprehensive test technique that uses a thiopeptide (Ac-PLG-[2-mercapto-4-methyl-pentanoyl]-LG-OC2H5) as a chromogenic substrate to screen MMP inhibitors. Using a microplate reader (BioTek, PowerWave, Gen5 software, Winooski, VT, USA) at room temperature, the UV absorbance was measured at 412 nm. NNGH was employed as an inhibitor of control.

The test system of the next data set is caspase-3. Description: Caspase-3 activation in A549 cells. The data set is classed as cell-based, human. The settings on record: A549, IC50 of the compounds, 24 h. The protocol:
The Spectrofluorometric Caspase-3 Assay kit (BD Pharmingen, Franklin Lakes, NJ) was used to assess the activation of caspase-3. The purpose of the kit was to measure the early indicator of cells going through apoptosis, known as caspase-3 or the DEVD-cleaving activity. First, 1 × 10^6 cells/mL of cells were resuspended in cold cell lysis buffer, rinsed with PBS, and then allowed to sit on ice for 30 min. […] In each reaction, a well containing 0.2 mL of 1 x HEPES buffer was filled with […] of reconstituted AcDEVD-AMC, a synthetic tetrapeptide fluorogenic substrate for caspase-3 activity. Each reaction/well received 20 μL of cell lysate. The reaction mixtures were incubated at 37 °C for 1 h. Using a microplate reader (Perkin-Elmer/Victor/X3) with an excitation wavelength of 380 nm and an emission wavelength of 460 nm, the amount of AMC released from Ac-DEVD-AMC was quantified. When compared with controls, apoptotic cell lysates containing active caspase-3 produced a significant emission. […] For all doses, duplicate wells were used. This experiment was performed according to Yurttaş et al.[52]

Another data set deals with C6 rat glioma cell line. In words: MTT cell viability / cytotoxicity on C6. It is filed as cell-based. The following applies: mean ± S.D. of three determinations. The protocol: (§1) The MTT (3-(4,5-dimethylthiazol-2-yl)-2,5-diphenyltetrazolium bromide) method was applicated to assess the cell viability of L929, C6 and A549 cell lines against the tested compounds according to the reported data.[51] In 96-well plates with a flat bottom, the A549, C6, and L929 cells were cultivated at a density of 5 × 10^3 cells per well. […] After addition, they were incubated for a full day in culture wells. Following the incubation period, 20 μL of phosphate-buffered saline (PBS) (Gibco, Paisley, UK) containing 5 mg/mL MTT powder (Sigma-Aldrich, St. Louis, MO, USA) was added to each well. The medium was taken out of the plate and replaced with 100 μL of DMSO in each well to dissolve the dye. This was left for 2 to 4 h under the same conditions and then left for 10 min. At the conclusion of the procedure, purple formazan, the reduction product of the MTT agent, was formed by the mitochondrial dehydrogenase enzyme of intact cells. A microtiter plate reader (BioTek Plate Reader, Winooski, VT, USA) was used to measure the cells at 540 nm. Cell viability was measured as a percentage and contrasted with that of the cells in the control group. Half-maximal inhibitory concentration 50 (IC50) values were determined by repeating each concentration in three wells and identifying the drug concentrations that decreased the absorbance to 50% of control values. The medium control served as the basis for calculating the percentage of viable cells.

Data set [3] concerns A549 human lung cancer cell line. Description: MTT cell viability / cytotoxicity on A549. It is filed as cell-based. The settings on record: MTT, mean ± S.D. of three determinations. The protocol:
(§2) In 75 cm^2 sterile plastic tissue culture flasks, the human lung adenocarcinoma A549 and the mouse fibroblast L929 cell lines were cultured in 90% RPMI (Sigma, Deisenhofen, Germany) media supplemented with 10% (v/v) FBS (Gibco, Paisley, UK) and adherent monolayers of penicillin/streptomycin (100 units/mL) from Gibco, Paisley, UK. These cells were cultured at 37 °C in an environment that was humidified and contained 5% CO2.
as §1

For data set [4], the system named is L929 murine fibroblast cell line. In words: MTT cell viability / cytotoxicity on L929 (healthy cells). The data set is classed as cell-based, mouse. The following applies: mean ± S.D. of three determinations. The protocol: as §2, §1
The subject of data set [5] is A549 cells. In words: Cell cycle analysis by flow cytometry. The following applies: A549, 24 h incubation. It is filed as cell-based, human. The protocol: Following a 24 h incubation period with the compounds, a cell cycle analysis measurement methodology was implemented in compliance with the manufacturer’s instructions for A549 cells (BD, Biosciences). Next, the cells were immersed in citrate buffer for a short while. At room temperature, the cells were centrifuged for 5 min at 400 g. After the supernatant was decanted, 250 μL of solution A was added to the pellet, and it was allowed to sit at room temperature for 10 min. Solution B (200 μL) was then added, carefully mixed, and incubated at room temperature for 10 min. Solution C (200 μL) was then added. It was gently mixed, allowed to stand at 4 °C for 10 min in the dark, and then examined using BD Bioscience’s MODFID software on a flow cytometer. This method was applied in our previous study.[54]

The mark [6] stands for this setting: Homo sapiens, A549, A549 cell line.
Where [7] appears, read: Mus musculus, L929, L929 healthy cell line.

T1 sequence (P14780 107-444 limits assumed): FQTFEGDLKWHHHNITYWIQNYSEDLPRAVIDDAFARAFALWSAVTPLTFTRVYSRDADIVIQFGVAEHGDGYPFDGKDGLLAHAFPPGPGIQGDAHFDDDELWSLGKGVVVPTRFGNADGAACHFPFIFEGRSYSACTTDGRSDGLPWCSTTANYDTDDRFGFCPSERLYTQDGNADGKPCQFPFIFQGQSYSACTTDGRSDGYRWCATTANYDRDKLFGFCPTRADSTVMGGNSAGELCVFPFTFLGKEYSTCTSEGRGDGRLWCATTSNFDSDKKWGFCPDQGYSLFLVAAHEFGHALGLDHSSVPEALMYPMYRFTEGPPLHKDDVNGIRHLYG

For `CC(=O)Nc1ccccc1OCc1nnc(SCC(=O)Nc2ccc(F)cc2)o1` [Compound 4l, 2-[(5-((2-Acetamidophenoxy)methyl)-1,3,4-oxadiazol-2-yl)thio]-N-(4-fluorophenyl)acetamide], in the data set with A549 cells [1], the “mitochondrial membrane depolarization %” value came to 8.71% and the “mitochondrial membrane polarization %” value was determined as 90.58%. Moreover, in the data set with A549 cells [2], the “Q1: necrotic cells” value was 32.81%; the “Q2 + Q4: early and late apoptotic cells” value turned out to be 18.49%; the “Q2: late apoptotic cells” value is on record as 11.46%; the “Q3: viable cells” value worked out at 48.70%. Further, in the data set with A549 cells [2], the “Q4: early apoptotic cells” value was 7.03%. At MMP-9 enzyme, this compound returned an IC50 of 2.55 ± 0.66 µM and an inhibition at 100 µg/mL above 75%. Also, in the data set with caspase-3, the “% (+): caspase-3 activity positive cells” value is given as 1.4% and the “% (−): caspase-3 activity negative cells” value amounted to 98.8%. Also, in the data set on C6 rat glioma cell line, the IC50 is above 1000 µM. In addition, the midpoint of inhibition in data set [3] (setting [6]), the IC50, lay at 1.8 ± 0.12 µM. Besides, 397 ± 10.2 µM corresponded to half-maximal inhibition in data set [4] (setting [7]) (IC50). In the data set with A549 cells [5], the “% S” value was determined as 6.62%, the G0/G1% was determined as 69.36% and the G2/M % turned out to be 24.03%.
`COc1ccc2nc(NC(=O)CSc3nnc(COc4ccccc4NC(C)=O)o3)sc2c1` [Compound 4c, 2-[(5-((2-Acetamidophenoxy)methyl)-1,3,4-oxadiazol-2-yl)thio]-N-(6-methoxybenzothiazol-2-yl)acetamide]: on MMP-9 enzyme, at 100 µg/mL the inhibition was 30.6 ± 2.29%. Besides, the IC50 is 22.1 ± 23.7 µM with C6 rat glioma cell line, above 1000 µM in data set [3] (A549 cell line), above 1030 µM in data set [3] (setting [6]) and 8.52 ± 0.31 µM in data set [4] (setting [7]).
For `CC(=O)Nc1ccccc1OCc1nnc(SCC(=O)Nc2nc3ccc(Cl)cc3s2)o1` [Compound 4b, 2-[(5-((2-Acetamidophenoxy)methyl)-1,3,4-oxadiazol-2-yl)thio]-N-(6-chlorobenzothiazol-2-yl)acetamide], the inhibition at 100 µg/mL against MMP-9 enzyme stood at 49.5 ± 1.86%. Moreover, the IC50 was 19.9 ± 6.33 µM in the data set on C6 rat glioma cell line, 24.5 ± 5.76 µM in data set [3] (setting [6]) and below 7.96 µM in data set [4] (setting [7]).
Regarding `COc1ccc(NC(=O)CSc2nnc(COc3ccccc3NC(C)=O)o2)cc1` [Compound 4i, 2-[(5-((2-Acetamidophenoxy)methyl)-1,3,4-oxadiazol-2-yl)thio]-N-(4-methoxyphenyl)acetamide], in the data set with A549 cells [1], the “mitochondrial membrane depolarization %” value came to 8.84% and the “mitochondrial membrane polarization %” value came out at 90.51%. For the same compound, in the data set on A549 cells [2], the “Q1: necrotic cells” value was determined as 30.12%; the “Q2 + Q4: early and late apoptotic cells” value is reported as 21.54%; the “Q2: late apoptotic cells” value turned out to be 9.75%; the “Q3: viable cells” value was 48.35%. Besides, the “Q4: early apoptotic cells” value with A549 cells [2] was 11.79%. In addition, the inhibition at 100 µg/mL against MMP-9 enzyme was 40.9 ± 2.54%. Moreover, in the data set on caspase-3, the “% (+): caspase-3 activity positive cells” value is 1.9% and the “% (−): caspase-3 activity negative cells” value came to 98.2%. Besides, in data set [3] (setting [6]), the IC50 is 1.59 ± 0.44 µM. In addition, the IC50 in data set [4] (setting [7]) turned out to be 14.6 ± 1.59 µM. Besides, in the data set on A549 cells [5], the “% S” value is 8.09%, the G0/G1% is listed as 78.78% and the G2/M % came to 12.14%.
Turning to `N.N.[Cl][Pt][Cl]` [cisplatin, reference compound], in the data set on A549 cells [1], the “mitochondrial membrane depolarization %” value was determined as 22.36% and the “mitochondrial membrane polarization %” value is 76.67%. Further, in the data set with A549 cells [2], the “Q1: necrotic cells” value amounted to 28.01%; the “Q2 + Q4: early and late apoptotic cells” value is reported as 10.07%; the “Q2: late apoptotic cells” value is on record as 5.04%; the “Q4: early apoptotic cells” value is listed as 5.03%. Further, in the data set on caspase-3, the “% (+): caspase-3 activity positive cells” value was 11.3% and the “% (−): caspase-3 activity negative cells” value worked out at 90.0%. In data set [3] (A549 cell line), this compound yielded an IC50 of 4.98 ± 0.66 µM. For the same compound, in the data set with A549 cells [5], the “% S” value came out at 2.18%, the G0/G1% is given as 74.75% and the G2/M % turned out to be 23.07%.
At MMP-9 enzyme, `CC(=O)Nc1ccccc1OCc1nnc(SCC(=O)Nc2nc3ccc([N+](=O)[O-])cc3s2)o1` [Compound 4d, 2-[(5-((2-Acetamidophenoxy)methyl)-1,3,4-oxadiazol-2-yl)thio]-N-(6-nitrobenzothiazol-2-yl)acetamide] registered an inhibition at 100 µg/mL of 27.6 ± 2.01%. Further, the IC50 is 28.3 ± 12.1 µM in the data set on C6 rat glioma cell line; above 1000 µM in data set [3] (A549 cell line); above 1030 µM in data set [3] (setting [6]); below 7.8 µM in data set [4] (L929 healthy cell line); below 7.96 µM in data set [4] (setting [7]).

The record behind these values is paper PMC10753699, “Synthesis of Some New 1,3,4-Oxadiazole Derivatives and Evaluation of Their Anticancer Activity” (ACS Omega, 2023).
